Measured values reported in patent publication US20030044413A1, “Methods of limiting apoptosis of cells” (Regents of the University of Minnesota, priority 1998, published 2003).
Read-outs that look alike come from different tables or passages of the source.

What was measured:
[1] = test system: Bad; assay: Western blot, liver of bile acid fed rats: Bad; format: in vivo, rat; details: bile acid feeding
Experimental: Video densitometry was accomplished using a Macintosh II (Apple Computer, Cupertino, Calif.) coupled to a Data Translation DT2255 video digitizer (Data Translation, Marlboro, Mass.) and a JVC GX-N8 video camera (JVC Corporation of America, Elmwood Park, N.J.) as described previously (Kren et al., J. Cell Biol., 123, 707-718 (1993)). Quantitation of the autoradiograms was performed using the NIH Image 1.4 densitometric analysis program.

[2] = test system: Bax; assay: Western blot, liver of bile acid fed rats: Bax; format: in vivo, rat; details: DCA feeding
Experimental: Animals and Diets. Male 160-175 g Sprague-Dawley rats (Sprague-Dawley, Indianapolis, Ind.), were maintained on a 12 h light-dark cycle and fed standard laboratory chow ad libitum for 3 days. The animals were then transferred to metabolic cages and fed diets of standard laboratory chow supplemented with either no bile acid or 0.4% (wt/wt) DCA, 0.4% UDCA, or a combination of DCA+UDCA (Bio-Serv, Frenchtown, N.J.). On day 10, the animals were sacrificed by exsanguination under ether anesthesia between 9 a.m. and 11 a.m. The livers were removed, rinsed in normal saline, and flash-frozen in liquid nitrogen until western blot analyses of apoptosis-related proteins were performed. All animals received humane care in compliance with the Guide for the Care and Use of Laboratory Animals, prepared by the National Academy of Sciences (NIH Publication No. 86-23, revised 1985).
Western Blot Analysis. Cytoplasmic proteins were isolated from rat liver tissue as described previously (Trembley et al., Cell Growth & Differ., 7, 903-916 (1996)). […] Cytoplasmic and mitochondrial protein concentrations were determined using the Bio-Rad protein assay (Bio-Rad Laboratories). […]
Densitometry. […] Quantitation of the autoradiograms was performed using the NIH Image 1.4 densitometric analysis program.

[3] = test system: cytochrome c; assay: Cytochrome c content of cytosol and mitochondria of rat hepatocytes; format: cell-based; details: Hepatocyte, hepatocytes with DCA, TGF-β1 or okadaic acid, 100 μM UDCA
Experimental: Isolation of cytosol and mitochondrial fractions and determination of cytochrome c and Bax content. Freshly isolated rat hepatocytes were cultured for 3 hours as described above and then incubated with William's medium supplemented with either 50 μM of DCA for 4 h, 1 nM TGF-β1 for 24 h and […] okadaic acid for 16 h, in the presence or absence of 100 μM UDCA, or no addition (control). Time-course experiments were also performed. Cells (1.0×10^7/ml) were harvested by centrifugation at 600×g for 5 min at 4° C. The cell pellets were washed once in ice-cold PBS and resuspended with 3 volumes of isolation buffer containing 20 mM Hepes-KOH, pH 7.5, 10 mM KCl, 1.5 mM MgCl2, 1 mM sodium EDTA, 1 mM sodium EGTA, 1 mM dithiothreitol (DTT), suplemmented with the COMPLETE protease inhibitor cocktail (Boehringer Mannheim Biochemicals, Inc., Indianapolis, Ind.) in 250 mM sucrose. After chiling on ice for 15 min, the cells were disrupted by 40 stokes of a glass homogeneizer and the homogenates were centrifuged twice at 2,500×g for 10 min at 4° C. to remove unbroken cells and nuclei. The mitochondria were pelleted by centrifugation at 12,000×g for 30 min at 4° C., resuspended in isolation buffer containing 250 mM sucrose and frozen at −80° C. […]

[4] = test system: hepatocytes, HuH-7, Hep G2 and Saos-2 cells; assay: Coadministration of UDCA with each apoptosis-inducing agent, all cell types; format: cell-based
Experimental: Incubation of cells with bile acids. […] The medium was gently removed at the indicated time points and scored for nonviable cells by trypan blue dye exclusion. The attached cells were fixed for morphologic assessment of apoptotic changes. […] HuH-7 cells were incubated with Dulbecco's medium supplemented with either 1 nM TGF-β1 (R & D Systems, Minneapolis, Minn.), 100 μM UDCA, TGF-β1+UDCA, or no addition (control) for 24 h, 48 h, and 72 h. Hep G2 cells were incubated with Dulbecco's medium supplemented with either 0.5 μg/ml of anti-Fas antibody CH-11 (Upstate Biotechnology, Inc., Lake Placid, N.Y.), 100 μM UDCA, CH-11+UDCA, or no addition for 48 h. […] Morphological evaluation of apoptosis. Morphology was performed as described previously (Oberhammer et al., Proc. Natl. Acad. Sci. USA 89, 5408-5412 (1992)). […] Fluorescence was visualized with a Zeiss standard fluorescence microscope (Carl Zeiss, Inc., Thornwood, N.Y.). Photographs were taken with Kodak Ektar-1000 film (Eastman Kodak Co.). Stained nuclei were scored by blind analysis and categorized according to the condensation and staining characteristics of chromatin. Normal nuclei were identified as noncondensed chromatin dispersed over the entire nucleus. Apoptotic nuclei were identified by condensed chromatin, contiguous to the nuclear membrane, as well as nuclear fragmentation of condensed chromatin.

Structure (SMILES) | cytoplasmic Bad expression, increase [1] | increase in mitochondrial-associated Bax [2] [fold] | inhibition at 100 µM ([3]; read-out: inhibition of cytochrome c depletion from the mitochondria) [%] | inhibition at 100 µM ([3]; read-out: inhibition of cytochrome c release to the cytosol) [%] | inhibition of apoptotic changes [4]
C[C@H](CCC(=O)O)[C@H]1CC[C@H]2[C@@H]3CC[C@@H]4C[C@H](O)CC[C@]4(C)[C@H]3C[C@H](O)[C@]12C [DCA, deoxycholic acid] | approximately 2 fold | 4.5 | – | – | –
C[C@H](CCC(=O)O)[C@H]1CC[C@H]2[C@@H]3[C@@H](O)C[C@@H]4C[C@H](O)CC[C@]4(C)[C@H]3CC[C@]12C [UDCA, ursodeoxycholic acid] | – | – | 70 | 60 | 50-100%
